These are literature values, as cited in US6765015B2, “Halogenated paclitaxel derivatives” (Xechem International, Inc., priority 1995, dated 2004).

SMILES strings stand for the structures.

This data set concerns leukemic tumors. The settings on record: in vivo.

Take `C/C=C(\C)C(=O)N[C@@H](c1ccccc1)[C@@H](O)C(=O)O[C@H]1C[C@@]2(O)[C@@H](OC(=O)c3ccccc3)[C@@H]3[C@]4(OC(C)=O)CO[C@@H]4C[C@H](O)[C@@]3(C)C(=O)[C@H](OC(C)=O)C(=C1C)C2(C)C` [Cephalomannine, cephalomannine]: the “remission of leukemic tumors” value is “effective in causing remission of leukemic tumors”.
